Values quoted from earlier work in patent US20210386367A1, “DEVICES AND SYSTEMS FOR GASTROINTESTINAL MICROBIOME DETECTION AND MANIPULATION” (Progenity, Inc., priority 2018, published 2021).
Converted amounts (≈) assume the structure as drawn. Like-named read-outs stand apart in the source and are kept apart here.

Experiments:
Settings in all cases: cited from earlier work
Pseudomonas aeruginosa = tested on: Pseudomonas aeruginosa
Enterobacter spp. [1] = tested on: Enterobacter spp.
Escherichia coli [2] = tested on: Escherichia coli
Citrobacter spp. = tested on: Citrobacter spp.
Staphylococcus aureus [3] = tested on: Staphylococcus aureus
Fusobacterium spp [4] = tested on: Fusobacterium spp
XDR Enterobacteriaceae = tested on: XDR Enterobacteriaceae
Prevotella bivia = tested on: Prevotella bivia
Proteus mirabilis = tested on: Proteus mirabilis
[5] = tested on: E. coli ATCC 35218 (TEM-1 β-lactamase producer)
Klebsiella spp. [6] = tested on: Klebsiella spp.
Haemophilus influenzae = tested on: Haemophilus influenzae
Klebsiella pneumoniae [7] = tested on: Klebsiella pneumoniae
Prevotella spp. [8] = tested on: Prevotella spp.
Escherichia coli [9] = tested on: Escherichia coli; remark: listed apart in the source
Enterococcus spp. = tested on: Enterococcus spp.
Bacteroides spp = tested on: Bacteroides spp
Klebsiella spp. [10] = tested on: Klebsiella spp.; remark: listed apart in the source
[11] = tested on: Bacteroides thetaiotaomicron
Enterobacter spp. [12] = tested on: Enterobacter spp.; remark: listed apart in the source
Fusobacterium spp [13] = tested on: Fusobacterium spp; remark: listed apart in the source
Staphylococcus aureus [14] = tested on: Staphylococcus aureus; remark: listed apart in the source
Staphylococci = tested on: Staphylococci
Lactobacillus spp. = tested on: Lactobacillus spp.
Bacteroides spp. = tested on: Bacteroides spp.
[15] = tested on: Bacteroides thetaiotaomicron; remark: listed apart in the source
Fusobacterium nucleatum = tested on: Fusobacterium nucleatum
Klebsiella pneumoniae [16] = tested on: Klebsiella pneumoniae; remark: listed apart in the source
Clostridium spp. = tested on: Clostridium spp.
Bacteroides fragilis = tested on: Bacteroides fragilis
Prevotella spp. [17] = tested on: Prevotella spp.; remark: listed apart in the source
Streptococcus agalactiae = tested on: Streptococcus agalactiae

C[C@@H](O)[C@H]1C(=O)N2C(C(=O)O)=C(S[C@@H]3CN[C@H](C(=O)N(C)C)C3)[C@H](C)[C@H]12 [meropenem]
% S (Pseudomonas aeruginosa): 64.2%
MIC50 (Pseudomonas aeruginosa): 1 µg/mL (≈ 2.61 µM)
MIC90 (Pseudomonas aeruginosa): >8 µg/mL
% S (Enterobacter spp. [1]): 57.5%
MIC50 (Enterobacter spp. [1]): 0.5 µg/mL (≈ 1.3 µM)
MIC90 (Enterobacter spp. [1]): 64 µg/mL (≈ 167 µM)
% S (Escherichia coli [2]): 83.1%
MIC50 (Escherichia coli [2]): ≤0.06 µg/mL
MIC90 (Escherichia coli [2]): 32 µg/mL (≈ 83.4 µM)
% S (Citrobacter spp.): 99%
MIC50 (Citrobacter spp.): 0.03 µg/mL (≈ 0.0782 µM)
MIC90 (Citrobacter spp.): 0.06 µg/mL (≈ 0.156 µM)
MIC50 (Staphylococcus aureus [3]): ≤0.12 µg/mL
MIC90 (Staphylococcus aureus [3]): 4 µg/mL (≈ 10.4 µM)
% S (Fusobacterium spp [4]): 100%
MIC50 (Fusobacterium spp [4]): 0.125 µg/mL (≈ 0.326 µM)
MIC90 (Fusobacterium spp [4]): 0.25 µg/mL (≈ 0.652 µM)
MIC range (Fusobacterium spp [4]): ≤0.03 to 0.5 µg/mL
% S (XDR Enterobacteriaceae): 20.5%
MIC50 (XDR Enterobacteriaceae): 8 µg/mL (≈ 20.9 µM)
MIC90 (XDR Enterobacteriaceae): >8 µg/mL
% S (Prevotella bivia): 100%
MIC50 (Prevotella bivia): 0.03 µg/mL (≈ 0.0782 µM)
MIC90 (Prevotella bivia): ≤0.03 µg/mL
MIC range (Prevotella bivia): ≤0.03 to 0.06 µg/mL
% S (Proteus mirabilis): 95.5%
MIC50 (Proteus mirabilis): 0.12 µg/mL (≈ 0.313 µM)
MIC90 (Proteus mirabilis): 0.25 µg/mL (≈ 0.652 µM)
MIC range (Proteus mirabilis): 0.12 to 16 µg/mL
CLSI QC range (MIC) [5]: (0.008-0.06) μg/mL
% S (Klebsiella spp. [6]): 78.3%
MIC50 (Klebsiella spp. [6]): ≤0.06 µg/mL
MIC90 (Klebsiella spp. [6]): >8 µg/mL
MIC50 (Haemophilus influenzae): ≤0.125 µg/mL
MIC90 (Haemophilus influenzae): 0.5 µg/mL (≈ 1.3 µM)
% S (Klebsiella pneumoniae [7]): 38.3%
MIC50 (Klebsiella pneumoniae [7]): 8 µg/mL (≈ 20.9 µM)
MIC90 (Klebsiella pneumoniae [7]): 64 µg/mL (≈ 167 µM)

CO[C@H]1/C=C/O[C@@]2(C)Oc3c(C)c(O)c4c(O)c(c5c(nc6cc(C)ccn65)c4c3C2=O)NC(=O)/C(C)=C\C=C\[C@H](C)[C@H](O)[C@@H](C)[C@@H](O)[C@@H](C)[C@H](OC(C)=O)[C@@H]1C [rifaximin]
MIC50 (Prevotella spp. [8]): 0.25 µg/mL (≈ 0.318 µM)
MIC90 (Prevotella spp. [8]): 0.5 µg/mL (≈ 0.636 µM)
MIC range (Prevotella spp. [8]): 0.25 to 1 µg/mL
% S (Escherichia coli [9]): 85.4%
MIC50 (Escherichia coli [9]): 16 µg/mL (≈ 20.4 µM)
MIC90 (Escherichia coli [9]): 64 µg/mL (≈ 81.4 µM)
MIC range (Escherichia coli [9]): 4 to 64 µg/mL
MIC50 (Enterococcus spp.): 4 µg/mL (≈ 5.09 µM)
MIC90 (Enterococcus spp.): 32 µg/mL (≈ 40.7 µM)
MIC range (Enterococcus spp.): ≤0.06 to 32 µg/mL
MIC50 (Bacteroides spp): >1024 µg/mL
MIC90 (Bacteroides spp): >1024 µg/mL
% S (Klebsiella spp. [10]): 43.6%
MIC50 (Klebsiella spp. [10]): 64 µg/mL (≈ 81.4 µM)
MIC90 (Klebsiella spp. [10]): 128 µg/mL (≈ 163 µM)
MIC range (Klebsiella spp. [10]): 8 to 128 µg/mL
MIC50 [11]: 1 µg/mL (≈ 1.27 µM)
MIC90 [11]: >1024 µg/mL
% S (Enterobacter spp. [12]): 34.8%
MIC50 (Enterobacter spp. [12]): 64 µg/mL (≈ 81.4 µM)
MIC90 (Enterobacter spp. [12]): 128 µg/mL (≈ 163 µM)
MIC range (Enterobacter spp. [12]): 32 to 128 µg/mL
MIC50 (Fusobacterium spp [13]): 8 µg/mL (≈ 10.2 µM)
MIC90 (Fusobacterium spp [13]): >1024 µg/mL
% S (Staphylococcus aureus [14]): 100%
MIC50 (Staphylococcus aureus [14]): ≤0.25 µg/mL
MIC90 (Staphylococcus aureus [14]): ≤0.25 µg/mL
MIC range (Staphylococcus aureus [14]): ≤0.25 µg/mL
MIC50 (Staphylococci): ≤0.06 µg/mL
MIC90 (Staphylococci): 64 µg/mL (≈ 81.4 µM)
MIC range (Staphylococci): ≤0.06 to 64 µg/mL

CO/N=C(\C(=O)N[C@@H]1C(=O)N2C(C(=O)O)=C(CSc3nc(=O)c(=O)[nH]n3C)CS[C@H]12)c1csc(N)n1 [ceftriaxone]
MIC50 (Lactobacillus spp.): 4 µg/mL (≈ 7.21 µM)
MIC90 (Lactobacillus spp.): 8 µg/mL (≈ 14.4 µM)
MIC range (Lactobacillus spp.): 0.12 to 64 µg/mL
MIC50 (Bacteroides spp.): >128 µg/mL
MIC90 (Bacteroides spp.): >128 µg/mL
% S [15]: 2%
MIC50 [15]: 32 µg/mL (≈ 57.7 µM)
MIC90 [15]: >32 µg/mL
% S (Fusobacterium nucleatum): 100%
MIC50 (Fusobacterium nucleatum): 0.125 µg/mL (≈ 0.225 µM)
MIC90 (Fusobacterium nucleatum): 0.5 µg/mL (≈ 0.902 µM)
MIC range (Fusobacterium nucleatum): 0.015 to 1 µg/mL
% S (Klebsiella pneumoniae [16]): 67%
MIC50 (Klebsiella pneumoniae [16]): ≤0.25 µg/mL
MIC90 (Klebsiella pneumoniae [16]): >64 µg/mL
% S (Clostridium spp.): 75%
MIC50 (Clostridium spp.): 2 µg/mL (≈ 3.61 µM)
% S (Bacteroides fragilis): 15%
MIC50 (Bacteroides fragilis): 32 µg/mL (≈ 57.7 µM)
MIC90 (Bacteroides fragilis): >32 µg/mL
% S (Prevotella spp. [17]): 90%
MIC50 (Prevotella spp. [17]): 1 µg/mL (≈ 1.8 µM)
MIC90 (Prevotella spp. [17]): 8 µg/mL (≈ 14.4 µM)
MIC range (Prevotella spp. [17]): ≤0.008 to 64 µg/mL
MIC50 (Streptococcus agalactiae): 0.025 µg/mL (≈ 0.0451 µM)
MIC90 (Streptococcus agalactiae): 0.1 µg/mL (≈ 0.18 µM)
MIC range (Streptococcus agalactiae): 0.012 to 0.1 µg/mL
